From patent US5059624A, “Guanidine derivatives having hypotensive activity, composition containing them and process for obtaining them” (Consiglio Nazionale Delle Ricerche, priority 1988, dated 1991)
Where two headings read alike, the source gives them in different places.

System: male Wistar rats
Details: for cardiovascular and respiratory effects (in words): i.v.
[1] = doses higher than 50-800 μg/kg i.v., rat

Protocol: In order to check its activity, diguanido-II was dissolved in a 0.9 % sodium chloride solution and administered through "rapid" i.v. route in male Wistar rats, under general anaesthesia obtained by means of 10% ethyl urethan (i ml/hg).
The active ingredients called guanido-III, -IV, -V, as well as agmatine and galegine, were also tested, after having been administered through "rapid" i.v. route in male Wistar rats (weighing average 280±5 g) under general anaesthesia obtained by means of 10% ethyl uretan (1 ml/hg, i.p.). The general experimental conditions were exactly the same as previously mentioned for guanido-I and diguanido-II, so that the cardiovascular and respiratory effects could be compared.
The parameters measured are as follows: systolic and diastolic systemic arterial pressure (AP), heart rate (HR), maximum rate of increase in the left ventricular isovolumetric pressure (dp/dt), respiratory frequency (RF) and tidal volume (TV). The doses (in μg/kg body weight, referred to the active substance) varied from 50 μg/kg to 6,400 μg/kg (ratio=2.0); in some cases higher does have been employed.

Structure (SMILES): NCCCCN=C(N)N [agmatine, 4-(aminobutyl)guanidine, reference compound]
- Δ AP DIAST (200 μg/kg i.v.): -4 ± 1 mmHg
- Δ AP SYST (200 μg/kg i.v.): -5 ± 2 mmHg
- Δ HR (200 μg/kg i.v.): 0 beats/min
- Δ RF (200 μg/kg i.v.): +9 ± 3%
- Δ TV (200 μg/kg i.v.): +3 ± 1%
- Δ dp/dt (200 μg/kg i.v.): +300 ± 89 mmHg/sec
- Δ AP DIAST (400 μg/kg i.v.): -6 ± 2 mmHg
- Δ AP SYST (400 μg/kg i.v.): -6 ± 1 mmHg
- Δ HR (400 μg/kg i.v.): 0 beats/min
- Δ RF (400 μg/kg i.v.): +11 ± 4%
- Δ TV (400 μg/kg i.v.): +12 ± 4%
- Δ dp/dt (400 μg/kg i.v.): +334 ± 54 mmHg/sec
- Δ AP DIAST (800 μg/kg i.v.): -8 ± 2 mmHg
- Δ AP SYST (800 μg/kg i.v.): -8 ± 2 mmHg
- Δ HR (800 μg/kg i.v.): 0 beats/min
- Δ RF (800 μg/kg i.v.): +12 ± 4%
- Δ TV (800 μg/kg i.v.): +14 ± 2%
- Δ dp/dt (800 μg/kg i.v.): +947 ± 131 mmHg/sec
- Δ AP DIAST (1600 μg/kg i.v.): -10 ± 1 mmHg
- Δ AP SYST (1600 μg/kg i.v.): -9 ± 3 mmHg
- Δ HR (1600 μg/kg i.v.): 0 beats/min
- Δ RF (1600 μg/kg i.v.): +11 ± 2%
- Δ TV (1600 μg/kg i.v.): +25 ± 5%
- Δ dp/dt (1600 μg/kg i.v.): +981 ± 94 mmHg/sec
- Δ AP DIAST (3200 μg/kg i.v.): -11 ± 2 mmHg
- Δ AP SYST (3200 μg/kg i.v.): -9 ± 2 mmHg
- Δ HR (3200 μg/kg i.v.): -7 ± 2 beats/min
- Δ RF (3200 μg/kg i.v.): +13 ± 4%
- Δ TV (3200 μg/kg i.v.): +27 ± 4%
- Δ dp/dt (3200 μg/kg i.v.): +1356 ± 164 mmHg/sec
- Δ AP DIAST (6400 μg/kg i.v.): -13 ± 4 mmHg
- Δ AP SYST (6400 μg/kg i.v.): -11 ± 4 mmHg
- Δ HR (6400 μg/kg i.v.): -13 ± 5 beats/min
- Δ RF (6400 μg/kg i.v.): +13 ± 5%
- Δ TV (6400 μg/kg i.v.): +30 ± 7%
- Δ dp/dt (6400 μg/kg i.v.): +3351 ± 417 mmHg/sec
- Δ AP DIAST (12800 μg/kg i.v.): -18 ± 5 mmHg
- Δ AP SYST (12800 μg/kg i.v.): -12 ± 2 mmHg
- Δ HR (12800 μg/kg i.v.): -17 ± 2 beats/min
- Δ RF (12800 μg/kg i.v.): +15 ± 2%
- Δ TV (12800 μg/kg i.v.): +31 ± 7%
- Δ dp/dt (12800 μg/kg i.v.): +2568 ± 432 mmHg/sec
- Δ AP DIAST (25600 μg/kg i.v.): -23 ± 4 mmHg
- Δ AP SYST (25600 μg/kg i.v.): -12 ± 3 mmHg
- Δ HR (25600 μg/kg i.v.): -17 ± 7 beats/min
- Δ RF (25600 μg/kg i.v.): +24 ± 4%
- Δ TV (25600 μg/kg i.v.): +33 ± 9%
- Δ dp/dt (25600 μg/kg i.v.): +3565 ± 813 mmHg/sec
- Δ AP DIAST (51200 μg/kg i.v.): -34 ± 6 mmHg
- Δ AP SYST (51200 μg/kg i.v.): -15 ± 1 mmHg
- Δ HR (51200 μg/kg i.v.): -22 ± 1 beats/min
- Δ RF (51200 μg/kg i.v.): +31 ± 7%
- Δ TV (51200 μg/kg i.v.): +35 ± 6%
- Δ dp/dt (51200 μg/kg i.v.): +5491 ± 869 mmHg/sec
- cardiovascular and respiratory effects (in words) (rat): analogous to those induced by guanido-V., moreover, said active ingredient caused a constant increase in dp/dt, RF and TV

Structure (SMILES): COc1ccc(C=CC(=O)NCCCCNC(=N)N)cc1OC [guanido-V, 4-[(3,4-dimethoxycinnamoyl)amino]butylguanldine]
- Δ AP DIAST (200 μg/kg i.v.): 0 mmHg
- Δ AP SYST (200 μg/kg i.v.): 0 mmHg
- Δ HR (200 μg/kg i.v.): 0 beats/min
- Δ RF (200 μg/kg i.v.): -7 ± 2%
- Δ TV (200 μg/kg i.v.): -14 ± 4%
- Δ dp/dt (200 μg/kg i.v.): -392 ± 21 mmHg/sec
- Δ AP DIAST (400 μg/kg i.v.): -3 ± 1 mmHg
- Δ AP SYST (400 μg/kg i.v.): -4 ± 2 mmHg
- Δ HR (400 μg/kg i.v.): 0 beats/min
- Δ RF (400 μg/kg i.v.): -3%
- Δ TV (400 μg/kg i.v.): -13 ± 2%
- Δ dp/dt (400 μg/kg i.v.): -384 ± 39 mmHg/sec
- Δ AP DIAST (800 μg/kg i.v.): -6 ± 2 mmHg
- Δ AP SYST (800 μg/kg i.v.): -5 ± 2 mmHg
- Δ HR (800 μg/kg i.v.): 0 beats/min
- Δ RF (800 μg/kg i.v.): -3 ± 2%
- Δ TV (800 μg/kg i.v.): +12 ± 4%
- Δ dp/dt (800 μg/kg i.v.): -430 ± 43 mmHg/sec
- Δ AP DIAST (1600 μg/kg i.v.): -6 ± 2 mmHg
- Δ AP SYST (1600 μg/kg i.v.): -8 ± 3 mmHg
- Δ HR (1600 μg/kg i.v.): 0 beats/min
- Δ RF (1600 μg/kg i.v.): -4 ± 1%
- Δ TV (1600 μg/kg i.v.): +11 ± 3%
- Δ dp/dt (1600 μg/kg i.v.): -642 ± 76 mmHg/sec
- Δ AP DIAST (3200 μg/kg i.v.): -9 ± 3 mmHg
- Δ AP SYST (3200 μg/kg i.v.): -10 ± 4 mmHg
- Δ HR (3200 μg/kg i.v.): 0 beats/min
- Δ RF (3200 μg/kg i.v.): +1 ± 1%
- Δ TV (3200 μg/kg i.v.): +20 ± 6%
- Δ dp/dt (3200 μg/kg i.v.): +684 ± 38 mmHg/sec
- Δ AP DIAST (6400 μg/kg i.v.): -15 ± 4 mmHg
- Δ AP SYST (6400 μg/kg i.v.): -11 ± 3 mmHg
- Δ HR (6400 μg/kg i.v.): -14 ± 6 beats/min
- Δ RF (6400 μg/kg i.v.): +10 ± 4%
- Δ TV (6400 μg/kg i.v.): +22 ± 7%
- Δ dp/dt (6400 μg/kg i.v.): +2354 ± 214 mmHg/sec
- Δ AP DIAST (12800 μg/kg i.v.): -28 ± 4 mmHg
- Δ AP SYST (12800 μg/kg i.v.): -23 ± 5 mmHg
- Δ HR (12800 μg/kg i.v.): -49 ± 8 beats/min
- Δ RF (12800 μg/kg i.v.): +11 ± 3%
- Δ TV (12800 μg/kg i.v.): +74 ± 8%
- Δ dp/dt (12800 μg/kg i.v.): +2996 ± 170 mmHg/sec
- Δ AP DIAST (102400 μg/kg i.v.): -30 ± 5 mmHg
- Δ AP SYST (102400 μg/kg i.v.): -24 ± 4 mmHg
- Δ HR (102400 μg/kg i.v.): -67 ± 11 beats/min
- Δ RF (102400 μg/kg i.v.): +6 ± 4%
- Δ TV (102400 μg/kg i.v.): +79 ± 12%
- Δ dp/dt (102400 μg/kg i.v.): +3040 ± 224 mmHg/sec
- cardiovascular and respiratory effects (in words) (rat): systolic and diastolic arterial hypotension, more evident from the dose of 3,200 μg/kg on; bradycardia was observed starting from the dose of 6,400 μg/kg, a slight reduction of dp/dt and RF appeared up to the highest doses; TV showed a similar trend

Structure (SMILES): N=C(N)N [guanidine]
- alterations of RF, TV and HR (in words) (50-800 μg/kg i.v., rat): did not cause in the rats under test significative alterations of RF, TV and HR
- dp/dt (in words) (50-800 μg/kg i.v., rat): a little reduction of dp/dt
- hypotensive responses (in words) (50-800 μg/kg i.v., rat): slight and not significant hypotensive responses
- the other parameters (in words) (6,400-1,2600 μg/kg i.v., rat): slight changes
- RF and TV (in words) [1]: reduction of RF and TV
- cardiac inotropism (dp/dt) (in words) [1]: a little increase in cardiac inotropism (dp/dt)
- systemic arterial pressure (in words) [1]: biphasic responses of a slight entity (hypo-hypertension)
